In the CheMixHub viscosity set:
Values joined by “and” are separate entries in the source; they are usually repeats but may differ in a detail not shown here. Identical values can stand only once. ± gives the uncertainty stated by the source.

Row | Compound | viscosity (308.15 K, 101 kPa) | viscosity (303.15 K, 101.33 kPa) | viscosity (293.15 K, 101 kPa) | viscosity (313.15 K, 101 kPa) | viscosity (313.15 K, 101.33 kPa) | viscosity (318.15 K, 101 kPa) | viscosity (303.15 K, 101 kPa) | other results
1 | CC(=O)OC(C)C(C)C (stereo unspecified) |  | 0.74 ± 0.019 mPa·s |  |  |  |  |  | viscosity (298.15 K, 101.33 kPa): 0.795 ± 0.021 mPa·s; viscosity (308.15 K, 101.33 kPa): 0.69 ± 0.018 mPa·s
2 | COC(C)=O |  |  | 0.411 ± 0.011 mPa·s | 0.321 ± 0.007 mPa·s and 0.3524 ± 0.0059 mPa·s and 0.331 ± 0.02 mPa·s | 0.331 ± 0.005 mPa·s | 0.299 ± 0.006 mPa·s and 0.313 ± 0.0085 mPa·s |  | viscosity (303.15 K, 101.3 kPa): 0.3448 ± 0.0047 mPa·s and 0.3442 ± 0.0032 mPa·s and 0.3448 ± 0.0027 mPa·s
3 | CCOC(=O)C(C)Br (stereo unspecified) |  |  |  |  |  |  | 1.493 ± 0.0094 mPa·s | 
4 | OCC1CCCCC1 |  |  |  |  |  |  |  | viscosity (293.15 K, 100 kPa): 37.75 ± 0.59 mPa·s
5 | CC(CC(C)(C)C)CP(=O)([O-])CC(C)CC(C)(C)C.CCCC[P+](C)(CCCC)CCCC (stereo unspecified) |  |  |  |  |  |  |  | viscosity (323.15 K, 101 kPa): 283 ± 13 mPa·s
6 | c1ccc2ncccc2c1 |  | 3.01 ± 0.04 mPa·s | 3.64 ± 0.04 mPa·s | 2.385 ± 0.023 mPa·s and 2.384 ± 0.023 mPa·s | 2.43 ± 0.03 mPa·s |  | 2.94 ± 0.03 mPa·s and 3.1 ± 0.08 mPa·s | viscosity (293.25 K, 101 kPa): 3.635 ± 0.037 mPa·s; viscosity (298 K, 101.3 kPa): 3.475 ± 0.028 mPa·s; viscosity (298.15 K, 101.33 kPa): 3.36 ± 0.04 mPa·s; viscosity (303 K, 101.3 kPa): 3.092 ± 0.026 mPa·s; viscosity (303.05 K, 101 kPa): 2.943 ± 0.029 mPa·s; viscosity (308 K, 101.3 kPa): 2.777 ± 0.023 mPa·s; viscosity (308.15 K, 101.33 kPa): 2.68 ± 0.03 mPa·s; viscosity (313 K, 101.3 kPa): 2.489 ± 0.021 mPa·s; viscosity (318 K, 101.3 kPa): 2.243 ± 0.02 mPa·s and 2.242 ± 0.02 mPa·s; viscosity (318.15 K, 101.33 kPa): 2.21 ± 0.03 mPa·s; viscosity (323.15 K, 101.33 kPa): 2.03 ± 0.03 mPa·s
7 | CCCCCCOC(C)=O |  | 0.782 ± 0.018 mPa·s |  |  | 0.672 ± 0.017 mPa·s |  |  | viscosity (293.15 K, 101.33 kPa): 1.078 ± 0.021 mPa·s
8 | COc1ccccc1N | 4.512 ± 0.1 mPa·s and 4.512 ± 0.2 mPa·s |  |  | 4.185 ± 0.093 mPa·s and 4.185 ± 0.18 mPa·s |  | 3.883 ± 0.087 mPa·s and 3.883 ± 0.17 mPa·s | 4.924 ± 0.089 mPa·s and 4.922 ± 0.11 mPa·s and 4.922 ± 0.21 mPa·s | viscosity (298.15 K, 100 kPa): 5.374 ± 0.11 mPa·s

More lines, main results first:

Row | viscosity (308.15 K, 101 kPa) | Compound | viscosity (303.15 K, 101.33 kPa) | viscosity (293.15 K, 101 kPa) | viscosity (313.15 K, 101 kPa) | viscosity (313.15 K, 101.33 kPa) | viscosity (318.15 K, 101 kPa) | viscosity (303.15 K, 101 kPa) | other results
9 | 56930 mPa·s | C[N+](C)(CCCS(=O)(=O)O)C1CCCCC1.Cc1ccc(S(=O)(=O)[O-])cc1 |  |  | 32650 mPa·s |  | 17830 mPa·s | 113700 mPa·s | viscosity (323.15 K, 101 kPa): 10190 mPa·s
10 | 37.2 ± 0.3 mPa·s | OCCCOCCCO |  | 115 ± 2 mPa·s | 27.4 ± 0.2 mPa·s |  | 20.8 ± 0.1 mPa·s | 51.1 ± 0.3 mPa·s | viscosity (298.15 K, 101 kPa): 78.2 ± 0.7 mPa·s
